Source: patent US12612392B2, “Compound, pharmaceutical compositions containing same, synthesis method therefor and use thereof” (SHENZHEN ZHONGGE BIOLOGICAL TECHNOLOGY CO., LTD., priority 2022, dated 2026)
Blank lines part the entries; values can stand above or below the compound they belong to.

Columns and labels:
model animals = settings: oral administration for three days; cited from earlier work
healthy participants = settings: Phase 1, healthy participants; cited from earlier work
mouse models = settings: cited from earlier work
[1] = In vitro liver microsome stability; assay type: in vitro ADME; settings: liver microsomes, NADPH, 37° C.
Experimental: A 5 mM MgCl2 100 mM K-Mg buffer solution was pre-heated. 5 μL of a 10 mM compound and a reference stock solution were added to 95 μL of acetonitrile (ACN) to prepare a spiked solution. 1.5 μL of a 500 µM spiked solution and 18.75 μL of 20 mg/mL liver microsomes were added to 479.8 μL of the K-Mg buffer solution. NADPH was dissolved in the K-Mg-buffer solution to prepare an NADPH stock solution ([…]). At different time points (0, 5, 15, 30 and 45 minutes), 30 μL of a 1.5 μM spiked solution containing the microsomes was evenly dropped into an assay plate. The plate was preincubated at 37° C. for 5 minutes. At 0 min, 200 μL of ACN containing IS (internal standard, tolbutamid/terfenadine) was added to the wells, and then 15 μl of the NADPH stock solution (6 mM) was added. For other time points, 15 μL of the NADPH stock solution (6 mM) was added to the wells to initiate the reaction and start the timing. At 5, 15, 30 and 45 min, the reaction was stopped by adding 200 μL of ACN containing IS to the corresponding wells of the plate. After quenching, the plate was shaken at 600 rpm for 10 minutes and then centrifuged at 4000 rpm for 50 minutes. 80 μL of the supernatant from each well was transferred to a 96-well sample plate containing 160 μL of pure water for UPLC/MS/MS analysis.

SMILES: NC(CO)(CO)CO.O=C(COc1ccc(Cl)c(F)c1)NC12CCC(NC(=O)COc3ccc(Cl)c(F)c3)(CC1)[C@@H](OCOP(=O)([O-])O)C2.[Na+] [ABBV-CLS-7262]
- brain function of model animals (model animals): restored to youthful levels

SMILES: O=C(COc1ccc(Cl)cc1)NC12CC(c3nnc([C@H]4C[C@@H](OC(F)(F)F)C4)o3)(C1)C2 [DNL-343]
- safety and tolerability (healthy participants): demonstrated its safety and tolerability

SMILES: O=C(COc1ccc(Cl)cc1)NC1CCC(NC(=O)COc2ccc(Cl)cc2)CC1 (stereo not shown) [ISRIB]
- long-term memory in mouse models (mouse models): improve long-term memory

- half-life at 1 µM [1]: 36.8 min
SMILES: O=C(c1ccc(F)cc1)C1CCN(CCn2c(=O)[nH]c3ccccc3c2=O)CC1 [Ketanserin, reference compound]
